For assay [1], the target named is T1, lens aldose reductase (Bos taurus, UniProt P16116).
T1 construct: the preparation of the enzyme from bovine lens; from tissue; host or cells: bovine lens
In words: in vitro aldose reductase inhibition (modified Hayman and Kinoshita procedure). The assay is classed as biochemical. The following applies: enzyme from bovine lens, read-out: % Inhibition at Different Molar Concentrations (in vitro); for inhibition at 10 µM: 10^-5 molar; for inhibition at 1 µM: 10^-6 molar; for inhibition at 0.1 µM: 10^-7 molar. An excerpt: In the present case, the procedure of Hayman and Kinoshita is modified in that the final chromatography step is omitted in the preparation of the enzyme from bovine lens.
Table 1 gives the results of the compounds of formula I or an addition salt thereof when evaluated in the above in vitro test.

Assay [2] concerns dulcitol accumulation in the lens. The assay is described as follows: galactosemic rats: decrease of dulcitol accumulation in the lens. It counts as in vivo, rat (Sprague-Dawley). An excerpt:
The aldose reductase inhibiting property of a compound of formula I and its utilization in diminishing and alleviating diabetic complications also are demonstrable in experiments using galactosemic rats, see D. Dvornik et al., Science, 182, 1146 (1973). Such experiments are exemplified hereinbelow after the listing of the following general comments pertaining to these experiments:
(a) Four or more groups of six male rats, 50-70 g, Sprague-Dawley strain, were used. The first group, the control group, was fed a mixture of laboratory chow (rodent laboratory chow, Purina) and glucose at 20% (w/w %) concentration. The untreated galactosemic group was fed a similar diet in which galactose is substituted for glucose. The other groups were fed diets containing various amounts of the compound of formula I in the galacetose containing diet. The concentration of galactose in the diet of the treated groups was the same as that for the untreated galactosemic group.
(b) After four days, the animals were killed by decapitation. The eyeballs were removed and punctured with a razor blade; the freed lenses were rolled gently on filter paper and weighed. The sciatic nerves were dissected as completely as possible and weighed. Both tissues were frozen and kept up to two weeks before being analyzed for dulcitol.
(c) The tissues were homoginized in 5% (w/v) trichloroacetic acid and the polyol determination on the extracts were performed by a modification of the procedure of M. Kraml and L. Cosyns, Clin. Biochem., 2, 373 (1969). Only two minor reagent changes were made: (a) The rinsing mixture was an aqueous 5% (w/v) trichloroacetic acid solution and (b) the stock solution was prepared by dissolving 25 mg of dulcitol in 100 ml of an aqueous trichloroacetic acid solution. [N.B.: For each experiment the average value found in the tissued from rats fed the glucose diet was subtracted from the individual values found in the corresponding rat tissue to obtain the amount of polyol accumulated].
The results obtained are exemplified in Table 2, wherein the values under L and N respectively, represent the percentage decreases of dulcitol accumulation in the tissues of the lens, and sciatic nerve for treated rats as compared to controls.

[3] abbreviates: 131 mg/kg/day in galactose diet, 4 days, vs controls.

Each structure is given as a SMILES string.

Regarding `NCCOC(=O)CN1C(=S)c2cccc3cccc1c23` [2-Thioxo-benz[cd]indole-1(2H)-acetic Acid, 2-Amino-ethyl Ester], in assay [1], the inhibition at 10 µM amounted to 83% and the inhibition at 1 µM turned out to be 29%.
As for `CCOC(=O)CN1C(=S)c2cccc3cccc1c23` [2-thioxo-benz[cd]indole-1(2H)-acetic acid, ethyl ester], in assay [1], the inhibition at 10 µM turned out to be 66% and the inhibition at 1 µM was determined as 11%. The “percentage decrease of dulcitol accumulation in lens (L)” value (shortened to “percentage decrease”) in assay [2] (150 mg/kg/day in galactose diet, 4 days, vs controls) came to 11%.
With `O=C(O)CN1C(=S)c2cccc3cccc1c23` [2-thioxo-benz[cd]indole-1(2H)-acetic acid], in assay [1], the inhibition at 10 µM is 93%, the inhibition at 1 µM came out at 87% and the inhibition at 0.1 µM worked out at 61%. For the same molecule, in assay [2] (165 mg/kg/day in galactose diet, 4 days, vs controls), the “percentage decrease” value was determined as 18%.
In the case of `O=C(O)CN1C(=S)c2cccc3c(Br)cc(Br)c1c23` [6,8-dibromo-2-thioxo-benz[cd]indole-1(2H)-acetic acid], in assay [1], the inhibition at 10 µM amounted to 89%, the inhibition at 1 µM came out at 56% and the inhibition at 0.1 µM is 13%. Further, in assay [2] (setting [3]), the “percentage decrease” value is on record as 9%.
In the case of `O=C(O)CN1C(=S)c2cccc3c(Cl)cc(Cl)c1c23` [6,8-dichloro-2-thioxo-benz[cd]indole-1(2H)-acetic acid], in assay [1], the inhibition at 10 µM was determined as 94%, the inhibition at 1 µM was 76% and the inhibition at 0.1 µM stood at 30%. Further, the “percentage decrease” value in assay [2] (128 mg/kg/day in galactose diet, 4 days, vs controls) came to 18%.
`O=C(O)CN1C(=S)c2cccc3c(Br)ccc1c23` [6-Bromo-2-thioxo-benz[cd]indole-1(2H)-acetic Acid]: in assay [1], the inhibition at 10 µM came out at 95%, the inhibition at 1 µM turned out to be 91% and the inhibition at 0.1 µM was found to be 79%. Besides, the “percentage decrease” value in assay [2] (setting [3]) is 27%.
`CN(C)CCCOC(=O)CN1C(=S)c2cccc3c(Cl)ccc1c23` [6-Chloro-2-thioxo-benz[cd]indole-1(2H)-acetic Acid, 3-Dimethylamino-1propylEster]: in assay [1], the inhibition at 10 µM worked out at 91%, the inhibition at 1 µM came out at 70% and the inhibition at 0.1 µM was determined as 14%. Moreover, the “percentage decrease” value in assay [2] (144 mg/kg, 96 h) is on record as 28%.
With `O=C(O)CN1C(=S)c2cccc3c(Cl)ccc1c23` [6-chloro-2-thioxo-benz[cd]indole-1(2H)-acetic acid], in assay [1], the inhibition at 10 µM worked out at 96%, the inhibition at 1 µM was found to be 91% and the inhibition at 0.1 µM was found to be 66%. Besides, the “percentage decrease” value in assay [2] (134 mg/kg/day in galactose diet, 4 days, vs controls) was found to be 27%.
Regarding `O=C(O)CN1C(=S)c2cccc3c(F)ccc1c23` [6-fluoro-2-thioxo-benz[cd]indole-1(2H)-acetic acid], in assay [1], the inhibition at 10 µM turned out to be 94%, the inhibition at 1 µM came to 88% and the inhibition at 0.1 µM was determined as 56%.
On to `O=C(O)CN1C(=S)c2cccc3c(I)ccc1c23` [6-iodo-2-thioxo-benz[cd]indole-1(2H)-acetic acid], for which, in assay [1], the inhibition at 10 µM came out at 93%, the inhibition at 1 µM amounted to 91% and the inhibition at 0.1 µM stood at 81%. For the same molecule, the “percentage decrease” value in assay [2] (141 mg/kg/day in galactose diet, 4 days, vs controls) was determined as 32%.

For the origin of these results see patent publication US4369188A, “2-Thioxobenz[cd]indole-1(2H)-acetic acid derivatives” (Ayerst, McKenna & Harrison Inc., priority 1981, dated 1983).
